Data taken from patent US20260364079A1 (Principia Biopharma Inc., priority 2022, published 2026).
Where “and” joins values, the source holds several entries; their conditions need not be identical. Equal entries are not always repeated.

Test: phase 1/2 study in relapsed/refractory ITP (NCT03395210), safety
Source text: The Safety Population was used for all safety analyses.
Pre-existing conditions that worsened during a study were reported as AEs.
Safety was graded per NCI CTCAE, version 4.0.

[1] = treatment-related TEAE, grade 1
[2] = treatment-related TEAE, grade 2
[3] = treatment-related TEAE, grade 3/4

CC(C)(C=C(C#N)C(=O)N1CCC[C@@H](n2nc(-c3ccc(Oc4ccccc4)cc3F)c3c(N)ncnc32)C1)N1CCN(C2COC2)CC1 (mixture of isomers) [rilzabrutinib, (R)-2-[3-[4-amino-3-(2-fluoro-4-phenoxy-phenyl)pyrazolo[3,4-d]pyrimidin-1-yl]piperidine-1-carbonyl]-4-methyl-4-[4-(oxetan-3-yl)piperazin-1-yl]pent-2-enenitrile]
Nausea [1]: 16 (27) number of patients (percent)
Peripheral swelling [1]: — (represents zero events)
Petechiae [1]: — (represents zero events)
Pruritus [1]: 1 (2) number of patients (percent)
Purpura [1]: — (represents zero events)
Rash [1]: 1 (2) number of patients (percent)
Thrombocytopena [1]: — (represents zero events)
Upper abdominal pain [1]: 1 (2) number of patients (percent)
Upper respiratory tract infection [1]: — (represents zero events)
Urinary tract infection [1]: — (represents zero events)
Vomiting [1]: 2 (3) number of patients (percent)
Abdominal discomfort [2]: — (represents zero events)
Abdominal distension [2]: — (represents zero events)
Abdominal pain [2]: 2 (3) number of patients (percent)
Abnormal dreams [2]: — (represents zero events)
Akathisia [2]: — (represents zero events)
Alopecia [2]: — (represents zero events)
Anemia [2]: — (represents zero events)
Any TEAE [2]: 15 (25) number of patients (percent)
Arthralgia [2]: — (represents zero events)
Arthropod bite [2]: — (represents zero events)
Back pain [2]: 1 (2) number of patients (percent)
Conjunctival hemorrhage [2]: — (represents zero events)
Contusion [2]: — (represents zero events)
Costochondritis [2]: — (represents zero events)
Cough [2]: — (represents zero events)
Decreased appetite [2]: — (represents zero events)
Defecation urgency [2]: 1 (2) number of patients (percent)
Diarrhea [2]: 3 (5) number of patients (percent)
Dizziness [2]: — (represents zero events)
Dyspepsia [2]: — (represents zero events)
Dyspnea [2]: — (represents zero events)
Dyspnea exertional [2]: — (represents zero events)
Edema [2]: — (represents zero events)
Epigastric discomfort [2]: 1 (2) number of patients (percent)
Epistaxis [2]: — (represents zero events)
Erysipelas [2]: 1 number of patients (percent) and 1 (2) number of patients (percent)
Fatigue [2]: 1 (2) number of patients (percent)
Frequent bowel movements [2]: 1 (2) number of patients (percent)
Headache [2]: — (represents zero events)
Heavy menstrual bleeding [2]: — (represents zero events)
Hypoesthesia [2]: 1 (2) number of patients (percent)
Hypophosphatemia [2]: — (represents zero events)
I lot flush [2]: 1 (2) number of patients (percent)
Ilypokalemia [2]: — (represents zero events)
Increased white blood cell count [2]: 1 (2) number of patients (percent)
Maculo-papular rash [2]: — (represents zero events)
Malaise [2]: — (represents zero events)
Micturition urgency [2]: — (represents zero events)
Muscle spasms [2]: — (represents zero events)
Myalgia [2]: — (represents zero events)
Nasal congestion [2]: — (represents zero events)
Nasopharyngitis [2]: — (represents zero events)
Nausea [2]: 2 (3) number of patients (percent)
Peripheral swelling [2]: — (represents zero events)
Petechiae [2]: — (represents zero events)
Pruritus [2]: 1 (2) number of patients (percent)
Purpura [2]: — (represents zero events)
Rash [2]: — (represents zero events)
Thrombocytopena [2]: — (represents zero events)
Upper abdominal pain [2]: 1 (2) number of patients (percent)
Upper respiratory tract infection [2]: — (represents zero events)
Urinary tract infection [2]: — (represents zero events)
Vomiting [2]: 1 (2) number of patients (percent)
Abdominal discomfort [3]: — (represents zero events)
Abdominal distension [3]: — (represents zero events)
Abdominal pain [3]: — (represents zero events)
Abnormal dreams [3]: — (represents zero events)
Akathisia [3]: — (represents zero events)
Alopecia [3]: — (represents zero events)
Anemia [3]: — (represents zero events)
Arthralgia [3]: — (represents zero events)
Arthropod bite [3]: — (represents zero events)
Back pain [3]: — (represents zero events)
Conjunctival hemorrhage [3]: — (represents zero events)
Contusion [3]: — (represents zero events)
Costochondritis [3]: — (represents zero events)
Cough [3]: — (represents zero events)
Decreased appetite [3]: — (represents zero events)
Defecation urgency [3]: — (represents zero events)
Diarrhea [3]: — (represents zero events)
Dizziness [3]: — (represents zero events)
Dyspepsia [3]: — (represents zero events)
Dyspnea [3]: — (represents zero events)
Dyspnea exertional [3]: — (represents zero events)
Edema [3]: — (represents zero events)
Epigastric discomfort [3]: — (represents zero events)
Epistaxis [3]: — (represents zero events)
Erysipelas [3]: — (represents zero events)
Fatigue [3]: — (represents zero events)
Frequent bowel movements [3]: — (represents zero events)
Headache [3]: — (represents zero events)
Heavy menstrual bleeding [3]: — (represents zero events)
Hypoesthesia [3]: — (represents zero events)
Hypophosphatemia [3]: — (represents zero events)
I lot flush [3]: — (represents zero events)
Ilypokalemia [3]: — (represents zero events)
Increased white blood cell count [3]: — (represents zero events)
Maculo-papular rash [3]: — (represents zero events)
Malaise [3]: — (represents zero events)
Micturition urgency [3]: — (represents zero events)
Muscle spasms [3]: — (represents zero events)
Myalgia [3]: — (represents zero events)
Nasal congestion [3]: — (represents zero events)
Nasopharyngitis [3]: — (represents zero events)
Nausea [3]: — (represents zero events)
Peripheral swelling [3]: — (represents zero events)
Petechiae [3]: — (represents zero events)
Pruritus [3]: — (represents zero events)
Purpura [3]: — (represents zero events)
Rash [3]: — (represents zero events)
Thrombocytopena [3]: — (represents zero events)
Upper abdominal pain [3]: — (represents zero events)
Upper respiratory tract infection [3]: — (represents zero events)
Urinary tract infection [3]: — (represents zero events)
Vomiting [3]: — (represents zero events)
grade 1 candida infection (unrelated to treatment): ‡Other infections and infestations not listed in the table that were unrelated to treatment and that occurred in a single patient each included grade 1 candida infection, fungal skin infection, and osteomyelitis; and grade 2 infected skin ulcer and oral herpes.
patient deaths (unrelated to treatment, 400 mg bid discontinued day 8, died 135 days after initiating): 1 patient
